Values after ≈ are worked out from the molar mass of the structure shown.
Key:
[1] = clinical pathology (serum clinical chemistry) in mice; assay type: in vivo; conditions: CD-1 mice, 20 mg/kg intravenously daily for 9 days, sera day 10
Experimental: 20-day-old CD-1 mice were divided into a vehicle control group (5 mice) and a treatment group (5 mice). Samples of glycopeptide antibiotics were administered at 20 mg/kg intravenously daily for 9 days.

[2] = tested on: Escherichia coli; test: in vitro antibacterial evaluation, MIC by broth dilution; assay type: cell-based; conditions: 18 hours at 35° C.
Procedure, shortened: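 MIC is the lowest antibiotic concentration (tested 64-0.06 μg/mL) preventing growth of a 5×10^5 CFU/mL inoculum. Determined by broth dilution in Mueller-Hinton II medium following NCCLS standard M7-A2.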

[3] = anatomic pathology (histopathology of heart and kidney) in mice; assay type: in vivo; conditions: CD-1 mice, 20 mg/kg intravenously daily for 9 days, necropsy day 10, microscopic histopathology
Experimental: Samples of tissues from necropsied mice were formalin-fixed, paraffin-embedded, sectioned, stained with hematoxylin and eosin, and examined microscopically. Histopathologic findings were recorded. These findings were subjectively graded on a scale corresponding to slight, mild, moderate, marked and severe as compared to untreated controls.

[4] = tested on: Staphylococcus sp.; test: in vitro antibacterial evaluation, MIC by broth dilution; assay type: cell-based; conditions: broth dilution, 18 hours at 35° C.
Procedure, shortened: (§1)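 MIC, the lowest antibiotic concentration preventing growth, was read across 64-0.06 μg/mL with 5×10^5 CFU/mL inoculum. Method followed NCCLS M7-A2 broth dilution using Mueller-Hinton II; Gram-positive strains covered recent methicillin-, penicillin- and/or vancomycin-resistant clinical isolates.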

[5] = tested on: Streptococcus sp.; test: as above; assay type: cell-based; conditions: broth dilution, 18 hours at 35° C.
Procedure, shortened: as §1

[6] = tested on: Enterococcus sp.; test: as above; assay type: cell-based; conditions: broth dilution, 18 hours at 35° C.
Procedure, shortened: as §1

For `CC(c1ccccc1)C1NC(=O)CNC(=O)C(CO)NC(=O)C(C(O)C2CN(Cc3ccccc3-c3ccccc3)C(=N)N2C2OC(CO)C(O)C(O)C2O)NC(=O)C(C(O)C2CNC(=N)N2)NC(=O)C(Cc2ccc(OC3OC(CO)C(OC4OC(CO)C(O)C(O)C4O)C(O)C3O)cc2)NC1=O` (centres unmarked) [Example 65], the “Clinical Chemistry (Day 10) % of Control, ALT” value [1] was “+196%”, the “Clinical Chemistry (Day 10) % of Control, AST” value [1] was “+182%” and the “Clinical Chemistry (Day 10) % of Control, BUN” value [1] was “+161%”. The “MIC Escherichia coli (ATCC 25922)” value [2] was greater than 128 µg/mL, the “MIC Escherichia coli (GC 4559)” value [2] was greater than 128 µg/mL and the “MIC Escherichia coli (GC 4560)” value [2] was 32 µg/mL (≈ 21.9 µM). The “Anatomical Pathology (Day 10), Heart” value [3] was 0, the “Anatomical Pathology (Day 10), Kidney” value [3] was “+++” and the “MIC Staphylococcus aureus (ATCC 29213)” value ([4]; strain ATCC 29213) was greater than 128 µg/mL. The “MIC Staphylococcus aureus (GC 1131)” value ([4]; strain GC 1131) was greater than 128 µg/mL, the “MIC Staphylococcus aureus (GC 3051)” value ([4]; strain GC 3051) was greater than 128 µg/mL and the “MIC Staphylococcus aureus (GC 3053)” value ([4]; strain GC 3053) was greater than 128 µg/mL. The “MIC Staphylococcus aureus (GC 4541)” value ([4]; strain GC 4541) was greater than 128 µg/mL, the “MIC Staphylococcus aureus (GC 4542)” value ([4]; strain GC 4542) was greater than 128 µg/mL and the “MIC Staphylococcus aureus-SMITH (GC 4543)” value ([4]; strain GC 4543) was greater than 128 µg/mL. For the same molecule, the “MIC Staphylococcus aureus (GC 4544)” value ([4]; strain GC 4544) was greater than 128 µg/mL, the “MIC Staphylococcus aureus (GC 4545)” value ([4]; strain GC 4545) was greater than 128 µg/mL and the “MIC Staphylococcus haemolyticus (GC 4546)” value ([4]; strain GC 4546) was greater than 128 µg/mL. For the same molecule, the “MIC Coagulase Negative Staphylococcus (GC 4547)” value ([4]; strain GC 4547) was greater than 128 µg/mL, the “MIC Coagulase Negative Staphylococcus (GC 4548)” value ([4]; strain GC 4548) was greater than 128 µg/mL and the “MIC Coagulase Negative Staphylococcus (GC 4549)” value ([4]; strain GC 4549) was greater than 128 µg/mL. The “MIC Coagulase Negative Staphylococcus (GC 4551)” value ([4]; strain GC 4551) was greater than 128 µg/mL, the “MIC Streptococcus agalactiae (GC 4564)” value [5] was greater than 128 µg/mL and the “MIC Streptococcus pneumoniae (ATCC 6301)” value [5] was 128 µg/mL (≈ 87.6 µM). The “MIC Streptococcus pneumoniae (GC 1894)” value [5] was 128 µg/mL (≈ 87.6 µM), the “MIC Streptococcus pneumoniae (GC 4565)” value [5] was 128 µg/mL (≈ 87.6 µM) and the “MIC Streptococcus pyogenes (GC 4563)” value [5] was 128 µg/mL (≈ 87.6 µM). The “MIC Streptococcus pneumoniae (ATCC 6301)” value ([5]; strain ATCC 6301) was 128 µg/mL (≈ 87.6 µM), the “MIC Streptococcus pneumoniae (GC 1894)” value ([5]; strain GC 1894) was 128 µg/mL (≈ 87.6 µM) and the “MIC Streptococcus pyogenes (GC 4563)” value ([5]; strain GC 4563) was 128 µg/mL (≈ 87.6 µM). For the same molecule, the “MIC Streptococcus agalactiae (GC 4564)” value ([5]; strain GC 4564) was greater than 128 µg/mL, the “MIC Streptococcus pneumoniae (GC 4565)” value ([5]; strain GC 4565) was 128 µg/mL (≈ 87.6 µM) and the “MIC Enterococcus avium (GC 4558)” value ([6]; Enterococcus avium (GC 4558)) was 128 µg/mL (≈ 87.6 µM). The “MIC Enterococcus faecalis (ATCC 29212)” value ([6]; Enterococcus faecalis (ATCC 29212)) was greater than 128 µg/mL, the “MIC Enterococcus faecalis (GC 4552)” value ([6]; Enterococcus faecalis (GC 4552)) was greater than 128 µg/mL and the “MIC Enterococcus faecalis (GC 4553)” value ([6]; Enterococcus faecalis (GC 4553)) was 128 µg/mL (≈ 87.6 µM). For the same molecule, the “MIC Enterococcus faecalis (GC 4554)” value ([6]; Enterococcus faecalis (GC 4554)) was greater than 128 µg/mL, the “MIC Enterococcus faecalis (GC 6189)” value ([6]; Enterococcus faecalis (GC 6189)) was greater than 128 µg/mL and the “MIC Enterococcus faecium (GC 2243)” value ([6]; Enterococcus faecium (GC 2243)) was 128 µg/mL (≈ 87.6 µM). The “MIC Enterococcus faecium (GC 4556)” value ([6]; Enterococcus faecium (GC 4556)) was greater than 128 µg/mL, the “MIC Enterococcus faecium (GC 4557)” value ([6]; Enterococcus faecium (GC 4557)) was 128 µg/mL (≈ 87.6 µM) and the “MIC Enterococcus avium (GC 4558)” value [6] was 128 µg/mL (≈ 87.6 µM). The “MIC Enterococcus faecalis (ATCC 29212)” value [6] was greater than 128 µg/mL, the “MIC Enterococcus faecalis (GC 2242)” value [6] was greater than 128 µg/mL and the “MIC Enterococcus faecalis (GC 2691)” value [6] was greater than 128 µg/mL. The “MIC Enterococcus faecalis (GC 3059)” value [6] was greater than 128 µg/mL, the “MIC Enterococcus faecalis (GC 4552)” value [6] was greater than 128 µg/mL and the “MIC Enterococcus faecalis (GC 4553)” value [6] was 128 µg/mL (≈ 87.6 µM). The “MIC Enterococcus faecalis (GC 4554)” value [6] was greater than 128 µg/mL, the “MIC Enterococcus faecalis (GC 6189)” value [6] was greater than 128 µg/mL and the “MIC Enterococcus faecium (GC 2243)” value [6] was 128 µg/mL (≈ 87.6 µM). For the same molecule, the “MIC Enterococcus faecium (GC 4556)” value [6] was greater than 128 µg/mL, the “MIC Enterococcus faecium (GC 4557)” value [6] was 128 µg/mL (≈ 87.6 µM) and the “MIC Enterococcus faecalis (GC 2242)” value ([6]; strain GC 2242) was greater than 128 µg/mL. For the same molecule, the “MIC Enterococcus faecalis (GC 2691)” value ([6]; strain GC 2691) was greater than 128 µg/mL and the “MIC Enterococcus faecalis (GC 3059)” value ([6]; strain GC 3059) was greater than 128 µg/mL.

Reference: patent US6914045B2, “Glycopeptide antibiotics” (Wyeth Holdings Corporation, priority 2001, dated 2005)
